Measured values published in patent US20260347409A1, “CHEMICALLY MODIFIED POLYPEPTIDE” (SUZHOU GLENKOL PHARMA TECHNOLOGY CO., LTD., priority 2023, published 2026).
Where a SMILES comes first, the peptide text is derived from it. Where no end group is shown, it is not given here. [ ]: non-standard residue; d: D form. The star is where a group is joined. pY = N[C@@H](Cc1ccc(OP(=O)(O)O)cc1)C(=O)O; NMeY = CN[C@@H](Cc1ccc(O)cc1)C(=O)O; Palmitoyl = CCCCCCCCCCCCCCCC(=O)*; Tle = CC(C)(C)[C@H](N)C(=O)O

Tests used:
[1] = Pharmacokinetic characteristics in rats after intravenous administration (plasma, LC-MS/MS); type: in vivo; settings: SD rats, intravenous (tail vein), 10 mg/kg; for MRT inf: rat
Method: Experimental Example 2: Pharmacokinetic Characteristics of Various Compounds in Rats
Intravenous administration: Three SD rats per group were administered the compounds of Example 1, Example 2, Example 3, Example 6, Example 7, Example 17, and Example 19 via the tail vein, respectively, at a dose of 10 mg/kg. all SD rats were allowed free access to food and water after administration. Plasma was collected 3 min, 10 min, 30 min, 1 h, 2 h, 6 h, 10 h, and 24 h after administration, with 3 rats per time point.
Sample processing: Whole blood was anticoagulated with EDTA-K2. Within 30 minutes of collection, the blood was centrifuged at 3000 g for 10 minutes at 2-8 °C. After centrifugation, the separated plasma was transferred to new 1.5 mL centrifuge tubes and stored at −80 °C.
Analytical method: The concentrations of each compounds in rat plasma were determined by LC-MS/MS using Shimadzu LC30AD and AB Sciex QTRAP 6500+instruments. The relevant pharmacokinetic parameters after administration were calculated.

[2] = test system: PC-12 cells; test: Cell viability of PC-12 neural cells under glutamate stimulation (excitotoxic cell death model, propidium iodide/Hoechst staining); type: cell-based, rat; settings: for Normalized cell viability (%): 10 nM compound, 30 min pretreatment, then glutamate stimulation 24 h, normalized to positive control MK-801; for EC50: dose-response relationship in promoting the viability of PC-12 neurons, glutamate stimulation
Method: 1.1. Culture of PC-12 Cell Line and Establishment of Excitotoxic Cell Death Model
PC-12 cells (a […] cell line derived from rat adrenal medulla) were cultured in DMEM/F12 complete medium until eaching 80-90% confluence. The cells were then digested, collected, resuspended, and seeded at density of 5×10^4 cells per well in a 24-well plate precoated with coverslips. Following 26 hours of cell culture, excitotoxic cell death was induced by glutamate stimulation. For model establishment: an appropriate amount of glutamate was weighed and dissolved in DMEM/F12 medium to prepare a stock solution. After filtration, the stock solution was diluted with culture medium and administered to the cells via medium replacement. The cells were further incubated for 24 hours after administration.
1.2 Administration of Small Molecules
Prior to glutamate modeling, cells incubated as described in the previous step were pretreated with 10 nM of the polypeptide compound according to the present application for 30 minutes, followed by glutamate stimulation.
1.3. Propidium Iodide Staining
Cells treated with the polypeptide compound according to the present application were stained with propidium iodide to assess cell death. After discarding the culture medium, the cells were washed with PBS, and propidium iodide/Hoechst was added. After incubating for 30 minutes, the cells were removed and the staining solution was discarded. After washing with PBS, the cells were fixed and mounted, and subjected to image acquisition under a fluorescence microscope. The number of propidium iodide-positive cells and Hoechst-positive cells in the acquired images was counted to calculate the cell viability. MK-801 was used as the positive control compound. The normalized cell viability was calculated using the following formula: (cell viability of the compound group −cell viability of the glutamate group)/(cell viability of the positive control group −cell viability of the glutamate group)×100%.
Based on the above dose-response studies of the compound, the inhibitory effects of different small-molecule compounds at the same dose (10 nM) against excitotoxic death in PC-12 neurons cells were further compared.
Based on this, the dose-response relationship of the neuroprotective effect of the polypeptide compounds according to the present application on PC-12 neural cells was analyzed.

Row | Compound | Normalized cell viability (%) [2] [%] | other results
1 | CC(C)C[C@H](NC(=O)[C@H](CCCCN)NC(=O)[C@H](CC(N)=O)NC(=O)[C@H](CCCNC(=N)N)NC(=O)[C@H](CC(N)=O)NC(=O)[C@H](CCCCN)NC(=O)[C@H](CCCCN)NC(=O)[C@H](CCCNC(=N)N)NC(=O)[C@H](CCCNC(=N)N)NC(=O)[C@H](CCCNC(=N)N)NC(=O)[C@H](CCC(N)=O)NC(=O)[C@H](CCCNC(=N)N)NC(=O)[C@H](CCCNC(=N)N)NC(=O)[C@H](CCCCN)NC(=O)[C@H](CCCCN)NC(=O)[C@H](CCCNC(=N)N)NC(=O)CNC(=O)[C@@H](N)Cc1ccc(OP(=O)(O)O)cc1)C(=O)N[C@@H](CCCNC(=N)N)C(=O)N[C@@H](CCCNC(=N)N)C(=O)N[C@@H](CCC(N)=O)C(=O)N[C@@H](Cc1c[nH]cn1)C(=O)N[C@@H](CO)C(=O)N[C@@H](Cc1ccc(O)cc1)C(=O)O [Example 3] (H-[pY]GRKKRRQRRRKKNRNKLRRQHSY-OH) |  | T1/2 [1]: 1.28 h; Vss [1]: 7.90 L/kg; MRT inf [1]: 1.71 h
2 | CN[C@@H](Cc1ccc(O)cc1)C(=O)NCC(=O)N[C@@H](CCCNC(=N)N)C(=O)N[C@@H](CCCCN)C(=O)N[C@@H](CCCCN)C(=O)N[C@@H](CCCNC(=N)N)C(=O)N[C@@H](CCCNC(=N)N)C(=O)N[C@@H](CCC(N)=O)C(=O)N[C@@H](CCCNC(=N)N)C(=O)N[C@@H](CCCNC(=N)N)C(=O)N[C@@H](CCCNC(=N)N)C(=O)N[C@@H](CCCCN)C(=O)N[C@@H](CCCCN)C(=O)N[C@@H](CC(N)=O)C(=O)N[C@@H](CCCNC(=N)N)C(=O)N[C@@H](CC(N)=O)C(=O)N[C@@H](CCCCN)C(=O)N[C@@H](CC(C)C)C(=O)N[C@@H](CCCNC(=N)N)C(=O)N[C@@H](CCCNC(=N)N)C(=O)N[C@@H](CCC(N)=O)C(=O)N[C@@H](Cc1c[nH]cn1)C(=O)N[C@@H](CO)C(=O)N[C@@H](Cc1ccc(O)cc1)C(N)=O [Example 9] (H-[NMeY]GRKKRRQRRRKKNRNKLRRQHSY-NH2) | 63.17 | EC50 [2]: 4.83 nM
3 | CCCCCCCCCCCCCCCC(=O)N[C@@H](Cc1ccc(O)cc1)C(=O)NCC(=O)N[C@@H](CCCNC(=N)N)C(=O)N[C@@H](CCCCN)C(=O)N[C@@H](CCCCN)C(=O)N[C@@H](CCCNC(=N)N)C(=O)N[C@@H](CCCNC(=N)N)C(=O)N[C@@H](CCC(N)=O)C(=O)N[C@@H](CCCNC(=N)N)C(=O)N[C@@H](CCCNC(=N)N)C(=O)N[C@@H](CCCNC(=N)N)C(=O)N[C@@H](CCCCN)C(=O)N[C@@H](CCCCN)C(=O)N[C@@H](CC(N)=O)C(=O)N[C@@H](CCCNC(=N)N)C(=O)N[C@@H](CC(N)=O)C(=O)N[C@@H](CCCCN)C(=O)N[C@@H](CC(C)C)C(=O)N[C@@H](CCCNC(=N)N)C(=O)N[C@@H](CCCNC(=N)N)C(=O)N[C@@H](CCC(N)=O)C(=O)N[C@@H](Cc1c[nH]cn1)C(=O)N[C@@H](CO)C(=O)N[C@@H](Cc1ccc(O)cc1)C(N)=O [Example 10] (Palmitoyl-YGRKKRRQRRRKKNRNKLRRQHSY-NH2) | 49.46 | 
4 | CCCCCCCCCCCCCCCC(=O)NCCOCCOCC(=O)NCCCC[C@H](NC(=O)[C@H](CCCNC(=N)N)NC(=O)[C@H](CCCNC(=N)N)NC(=O)[C@H](CCCNC(=N)N)NC(=O)[C@H](CCC(N)=O)NC(=O)[C@H](CCCNC(=N)N)NC(=O)[C@H](CCCNC(=N)N)NC(=O)[C@H](CCCCN)NC(=O)[C@H](CCCCN)NC(=O)[C@H](CCCNC(=N)N)NC(=O)CNC(=O)[C@@H](N)Cc1ccc(O)cc1)C(=O)N[C@@H](CCCCN)C(=O)N[C@@H](CC(N)=O)C(=O)N[C@@H](CCCNC(=N)N)C(=O)N[C@@H](CC(N)=O)C(=O)N[C@@H](CCCCN)C(=O)N[C@@H](CC(C)C)C(=O)N[C@@H](CCCNC(=N)N)C(=O)N[C@@H](CCCNC(=N)N)C(=O)N[C@@H](CCC(N)=O)C(=O)N[C@@H](Cc1c[nH]cn1)C(=O)N[C@@H](CO)C(=O)N[C@@H](Cc1ccc(O)cc1)C(=O)O [Example 14, YGRKKRRQRRRK(N-AEEA-Palmitic acid)KNRNKLRRQHSY] | 84.14 | 
5 | CC(=O)N[C@@H](Cc1ccc(O)cc1)C(=O)NCC(=O)N[C@@H](CCCNC(=N)N)C(=O)N[C@@H](CCCCN)C(=O)N[C@@H](CCCCN)C(=O)N[C@@H](CCCNC(=N)N)C(=O)N[C@@H](CCCNC(=N)N)C(=O)N[C@@H](CCC(=O)O)C(=O)N[C@@H](CCCNC(=N)N)C(=O)N[C@@H](CCCNC(=N)N)C(=O)N[C@@H](CCCNC(=N)N)C(=O)N[C@@H](CCCCN)C(=O)N[C@@H](CCCCN)C(=O)N[C@@H](CC(=O)O)C(=O)N[C@@H](CCCNC(=N)N)C(=O)N[C@@H](CC(=O)O)C(=O)N[C@@H](CCCCN)C(=O)N[C@H](CC(C)C)C(=O)N[C@@H](CCCNC(=N)N)C(=O)N[C@@H](CCCNC(=N)N)C(=O)N[C@@H](CCC(=O)O)C(=O)N[C@@H](Cc1c[nH]cn1)C(=O)N[C@@H](CO)C(=O)N[C@@H](Cc1ccc(O)cc1)C(N)=O [Example 20, Ac-YGRKKRRERRRKKDRDK(D-L)RREHSY-NH2] (Ac-YGRKKRRERRRKKDRDK[dL]RREHSY-NH2) | 87.36 | 
6 | CC(=O)N[C@@H](Cc1ccc(O)cc1)C(=O)NCC(=O)N[C@@H](CCCNC(=N)N)C(=O)N[C@@H](CCCCN)C(=O)N[C@@H](CCCCN)C(=O)N[C@@H](CCCNC(=N)N)C(=O)N[C@@H](CCCNC(=N)N)C(=O)N[C@@H](CCC(=O)O)C(=O)N[C@@H](CCCNC(=N)N)C(=O)N[C@@H](CCCNC(=N)N)C(=O)N[C@@H](CCCNC(=N)N)C(=O)N[C@@H](CCCCN)C(=O)N[C@@H](CCCCN)C(=O)N[C@@H](CC(=O)O)C(=O)N[C@@H](CCCNC(=N)N)C(=O)N[C@@H](CC(=O)O)C(=O)N[C@@H](CCCCN)C(=O)N[C@H](C(=O)N[C@@H](CCCNC(=N)N)C(=O)N[C@@H](CCCNC(=N)N)C(=O)N[C@@H](CCC(=O)O)C(=O)N[C@@H](Cc1c[nH]cn1)C(=O)N[C@@H](CO)C(=O)N[C@@H](Cc1ccc(O)cc1)C(N)=O)C(C)(C)C [Example 25, Ac-YGRKKRRERRRKKDRDKTleRREHSY-NH2] (Ac-YGRKKRRERRRKKDRDK[Tle]RREHSY-NH2) | 86.80 | 
7 | CC(=O)N[C@@H](Cc1ccc(O)cc1)C(=O)NCC(=O)N[C@@H](CCCNC(=N)N)C(=O)N[C@@H](CCCCN)C(=O)N[C@H](CCCCN)C(=O)N[C@H](CCCNC(=N)N)C(=O)N[C@@H](CCCNC(=N)N)C(=O)N[C@@H](CCC(=O)O)C(=O)N[C@@H](CCCNC(=N)N)C(=O)N[C@H](CCCNC(=N)N)C(=O)N[C@@H](CCCNC(=N)N)C(=O)N[C@@H](CCCCN)C(=O)N[C@@H](CCCCN)C(=O)N[C@@H](CC(=O)O)C(=O)N[C@@H](CCCNC(=N)N)C(=O)N[C@@H](CC(=O)O)C(=O)N[C@@H](CCCCN)C(=O)N[C@H](CC(C)C)C(=O)N[C@H](CCCNC(=N)N)C(=O)N[C@@H](CCCNC(=N)N)C(=O)N[C@@H](CCC(=O)O)C(=O)N[C@@H](Cc1c[nH]cn1)C(=O)N[C@@H](CO)C(=O)N[C@@H](Cc1ccc(O)cc1)C(N)=O [Example 26, Ac-YGRK(D-K)(D-R)RER(D-R)RKKDRDK(D-L)(D-R)REHSY-NH2] (Ac-YGRK[dK][dR]RER[dR]RKKDRDK[dL][dR]REHSY-NH2) | 82.39 | 
8 | Ac-YGRKKRRERRRKKDRDKLRREHSY-NH2 [Example 18] | 87.20 | 
9 | Ac-YGRKKRRERRRKKDRDKVRREHSY-NH2 [Example 23] | 74.16 | 
10 | Ac-YGRKKRRQRRRKKNRNKLRRQHSY [Example 4] | 85.00 | 
11 | YGRKKRRERRRKKDRNKLRRQHSY [Example 17] |  | T1/2 [1]: 1.66 h; Vss [1]: 23.1 L/kg; MRT inf [1]: 2.29 h
12 | YGRKKRRQRRRKKNRDKLRREHSY [Example 16] | 85.15 | EC50 [2]: 18.8 nM
13 | YGRKKRRQRRRKKNRNKIRRQHSY-NH2 [Example 12] | 58.59 | 
